Laboratory results as given in patent US7041276B2, “Methods of screening agents for activity using teleosts” (priority 1998, dated 2006).
“Also recorded” adds a separate entry of the source.

Tests used:
mice and rats = details: TOXNET Web Search and other sources; cited from earlier work
mice = details: i.p. (intraperitoneal); cited from earlier work
[1] = system: liver of zebrafish embryos; assay: Liver staining with streptavidin-peroxidase (DAB visual, ABTS colorimetric); format: in vivo
Source text: Toxic activity in the liver of the treated whole animal can be assessed visually by using a rapid colorimetric staining procedure. This procedure is based on the use of a streptavidin (avidin) conjugated reporter enzyme, such as peroxidase, to detect naturally biotinylated carboxylase enzymes in the liver, gut, and digestive tube of whole animals, such as zebrafish embryos. These biotinyl-lysine containing enzymes, such as acetyl-CoA carboxylase and other carboxylases, are predominantly located in the liver and digestive tube. As a result, staining is organ specific (FIG. 11). Quantitative biotinylated assessment of the liver can be made. By visual detection of biotinylation, size and location of the liver can be determined.
Zebrafish embryos (4, 5 or 6 days old) were fixed with 4% paraformaldehyde for 1 hour at room temperature and treated with methanol 100% overnight at −20° C. The embryos were rehydrated and washed with PBST. […] The embryos were then washed twenty minutes three times with PBST and stained for peroxidase with two different dyes: Diaminobenzidine (DAB) (Pierce) (insoluble) to assess liver staining and 2,2′-Azino-bis(3-Ethylbenz-thiazoline-6-sulfonic acid)(ABTS)(Sigma)(soluble) to measure a quantitative visual signal using a colorimetric method. […] The ABTS signal was detected by measuring the absorbance of the solution at 405 nanometer […] using a spectrophotometer. […]

zebrafish embryos = assay: Five-day zebrafish toxicity testing; format: in vivo; details: for Zebrafish specific toxicity observed: five-day exposure
Description: Fertilized zebrafish embryos were obtained by natural spawning in our aquaculture facility. To reduce variations between batches, randomized samples of embryos from 3 or 4 independent matings were used. The test medium was prepared by combining 5 g of Instant Ocean Salt with 3 g of CaSO4 in 25 liters of distilled water, according to Westerfield, supra. The embryos were maintained in the test medium throughout the experiments. Embryos at 24 hours of development (with chorion) were exposed continuously for five days to chemical compounds at different concentrations of the chemical compounds and controls. In general, the concentrations ranged from 100 nanomolar (nM) to 100 micromolar (μM). Tests were repeated four times for each series of dilutions, and a standard deviation was calculated for each treatment (see “Statistical Methods” section). Ten embryos per concentration were exposed in a total volume of 1 ml (constant ratio of 100 μl/embryo) using a 24 multi-well plate. (Other sizes of multi-well plates, such as 96-well plates can also be used to facilitate screening.) The compounds were renewed daily. In all cases, 0.1% of dimethyl sulfoxide (DMSO) was used as a carrier solvent during the treatment. Controls with and without 0.1% DMSO were performed in all experiments. This approach has long been used to introduce anesthetics and other chemicals into fish embryos (Westerfield, supra).
Experiments were carried out at a constant temperature (28–28.5° C.) in the dark to protect the compounds from decomposition due to light exposure. Dead embryos were removed daily, counted, and used to calculate the Median Lethal Concentration (LC50, see “Statistical Methods” section herein). Each day, surviving embryos were analyzed visually under a dissecting binocular microscope (Zeiss, amplification 30–50×). Macroscopic malformations (such as axial defects, embryolethality, growth inhibition, general malformations, including microcephaly, macrocephaly, tail truncation, tail malformation, loss of axial structures, such as somites, etc.) were observed, classified, and counted to assess whole animal toxicity. Compounds that were lethal or induced these or any noted malformations or disruptions during development (e.g., during the first 5 days of development) were further examined for toxic effects on organs. The embryonic developmental stage that is affected by the toxic compound can be determined. Organ toxicity can be assessed in surviving embryos using in situ hybridization, enzymatic assays, and immunochemistry procedures.
Toxic activity in the kidney (Pronephros) can be assessed visually by colorimetric staining of the kidney of the treated whole animal (e.g., zebrafish). Zebrafish pronephros express high levels of the enzyme alkaline phosphatase that can be easily assayed using a chromogenic dye. To stain kidneys in zebrafish embryos, embryos were fixed with 2% paraformaldehyde overnight at 4° C. and then treated with methanol 100% for 30 minutes at room temperature. […]
For the concentrations tested with aspirin and dexamethasone in these studies, there was no partial lethality and the geometric mean of the parameters “no mortality” (0%) and “mortality” (100%) of the effect concentration was taken as the LC50 and binomial confidence limits were calculated according to Stephan, “Methods for Calculating LD50” in Aquatic Toxicology and Hazard Evaluation (F. L. Mayce and J. L. Hamelink eds.) ASTM STP 634, pp. 65–84. […]

rats = details: i.p. (intraperitoneal); cited from earlier work

C[C@@H]1C[C@H]2[C@@H]3CCC4=CC(=O)C=C[C@]4(C)[C@@]3(F)[C@@H](O)C[C@]2(C)[C@@]1(O)C(=O)CO [Dexamethasone]
Mammalian models specific toxicity (from the literature) (mice and rats): liver,; also recorded: gastro-
Mammalian models LD50 (mice): 410 (mice, i.p.) mg/kg
liver size compared with control embryos ([1]; 100 μM for five days, six day old embryo): dramatic reduction in liver size
reduction of the colorimetric liver signal (ABTS, 405 nm) compared with untreated embryos ([1]; 100 μM, five days): about 70%
Zebrafish LD50 (zebrafish embryos; embryos exposed continuously for five days from 24 hours of development): 324 mg/L
Zebrafish specific toxicity observed (zebrafish embryos): liver,; also recorded: gastro-
Zebrafish specific toxicity observed (zebrafish embryos; listed as dexamethasone): Liver and gastrointestinal toxicity
Mammalian models LD50 (rats): 54 (rats, i.p.) mg/kg
